pIC50: −log10 of the molar value. Read-outs that look alike come from different tables or passages of the source.
How the values were obtained:
[1] = Plasmatic concentration (AUC) of aminosteroids after a single subcutaneous injection in rat; conditions: Table 6, subcutaneous one time, 2.3 mg/kg
Method: (§1) Animals: Six to seven week-old male Sprague-Dawley rats (Crl:CD®(SD)Br VAF/Plus™) weighing approximately 220 g were obtained from Charles-River, Inc (St-Constant, Qc., Canada). The animals were acclimatized to environmental conditions (temperature: 22±3° C.; humidity: 50±20%; 12-h light/12-h dark cycles, lights on at 07:15 h) for at least 5 days before starting the experiment. The animals were housed three per cage and were allowed free access to water and a certified commercial rodent food (Rodent Diet #T.2018.15, Harlan Teklad, Madison, Wis., U.S.A.) and were randomized according to their body weight.
(§2) Assay: A pharmacokinetic study was carried out following one subcutaneous (s.c.) injection of the aminosteroids at one concentration (2.3 mg/kg of body weight in 0.5 mL of vehicle fluid). The compound was first dissolved in Ethanol (EtOH) followed by the addition of propylene glycol such that a final concentration of EtOH of 8% was obtained. During this experiment, the rats were housed individually and were fasted for 8h before injection of the aminosteroid. Blood samples for determination of aminosteroid plasma concentration were collected at the jugular vein (0.4 mL by animal) at target intervals of 3, 7, 12 and 24 h (or 3 and 12 h) post-dose from six rats per time point (Tables 5, 6 and 7). After the collect at 7 h, a replacement fluid (0.9% sodium chloride injection USP) was injected in the rat. Blood samples were collected in Microvette potassium-EDTA (ethylenediamine tetra-acetic acid)-coated tubes (Sarstedt, Aktiengesellchaft & Co, Germany) and centrifuged at 3200 rpm for 10 minutes at 4° C. The plasma was collected and stored at −80° C. until analyzed by liquid chromatography/mass spectrometry/mass spectrometry (LC/MS/MS) analysis.
(§3) Aminosteroid measurement: The concentration of the aminosteroid was determined by LC/MS/MS analysis using a procedure developed at the CHUQ (CHUL)—Research Center (Québec, Qc, Canada). Briefly, for extraction from serum, 100 νL, of the serum sample was transferred to individual tubes and 600 μL of ammonium acetate (1 mM) was added. A methanolic solution (50 μL) containing a steroidal internal standard was then added to each tube. Samples were transferred on Strata-X SPE columns (Phenomenex, Torrance, Calif., USA), which have been conditioned with 2 mL of MeOH and 2 mL of water. Each column was washed with 2 mL of MeOH:water (10:90, v/v). The aminosteroid was then eluted with 5 mL of MeOH containing 5 mM ammonium acetate. The MeOH was evaporated at 45° C. under inert atmosphere and the dried residue dissolved in 100 μL of MeOH:water (85:15, v/v). […] The inhibitor was detected using an API 3000 mass spectrometer, equipped with TurbolonSpray (Applied Biosystems, Canada). ESI in positive ion mode was used.

[2] = tested on: HL-60 acute promyelocytic leukemia cells; assay: Cell proliferation assay (MTS) on HL-60 leukemia cells; type: cell-based, human; conditions: HL-60 cancer cell line;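 note: cells exposed to serially diluted compound for 3 days at 37 °C, then viable cell number read via MTS conversion to coloured formazan by metabolically active cells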
Method: All of the following cell lines were maintained under a CO2 humidified atmosphere at 37° C. The culture media were changed every 3-4 days and the cells were split once a week.
For the assay, the culture medium was the same.
The cell proliferation assay was performed using 3-(4,5-dimethylthiazol-2-yl)-5-(3-carboxymethoxyphenyl)2-(4-sulfophenyl)-2H-tetrazolium (MTS) (Cell Titer 96 Aqueous, Promega, USA). MTS is converted into water-soluble colored formazan by dehydrogenase enzymes present in metabolically active cells, which allows the measurement of the number of viable cells.
The cells were incubated at 37° C. and 5% CO2. The steroid derivatives of the present disclosure were dissolved in ethanol to prepare the 1×10^−2 M stock solutions. The stock solutions and doxorubicin (DOX) (Novapharm, Toronto, Canada) were diluted at multiple concentrations with culture media, added to each well, as indicated, and incubated for 3 days. Following each treatment, 20 μl MTS was added to each well and the mix was incubated for 4 h.

in vivo = conditions: male, Sprague-Dawley, rat, sc, 2.3 mg/kg
Method: as §1, §2, §3

[3] = Table 6, read-out: IC50 (HL-60)
[4] = Homo sapiens, Table 4, read-out: IC50
[5] = Homo sapiens, Table 6, read-out: IC50 (HL-60)

Structure (SMILES) | AUC (0-3 h) [1] [ng·h/mL] | AUC (0-12 h) [1] [ng·h/mL] | pIC50 ([2]; Table 4, read-out: IC50) | pIC50 [2, 3] | AUC(0-t) (in vivo; AUC (0-3 h)) [ng·h/mL] | AUC(0-t) (in vivo; AUC (0-12 h)) [ng·h/mL] | pIC50 [2, 4] | pIC50 [2, 5]
C#C[C@]1(O)CC[C@H]2[C@@H]3CC[C@H]4C[C@H](O)[C@@H](N5CCN(C(=O)[C@@H]6CCCN6C(=O)c6ccc7ccccc7c6)CC5)C[C@]4(C)[C@H]3CC[C@@]21C [26 (AH-71), {4-[(2β,3α,5α,17α)-3,17-dihydroxypregn-20-yn-2-yl]piperazin-1-yl}[(2S)-1-(naphthalen-2-ylcarbonyl)pyrrolidin-2-yl]methanone] | 278 | 1338 | 5.72 | 5.72 |  |  |  | 
C[C@]12C[C@H](N3CCN(C(=O)[C@@H]4CCCN4C(=O)c4ccc5ccccc5c4)CC3)[C@@H](O)C[C@@H]1CC[C@@H]1[C@@H]2CC[C@@]2(C)[C@H]1CC[C@]2(C)O [30 (AH-56), {4-[(2β,3α,17β)-3,17-dihydroxy-17-methylandrostan-2-yl]piperazin-1-yl}[(2S)-1-(naphthalen-2-ylcarbonyl)pyrrolidin-2-yl]methanone] | 183 | 876 | 5.33 | 5.33 |  |  |  | 
C[C@]12CC[C@H]3[C@@H](CCC4C[C@H](O)[C@@H](N5CCN(C(=O)[C@@H]6CCCN6C(=O)c6cc7ccccc7cn6)CC5)C[C@@]43C)[C@@H]1CC[C@@H]2O (stereo partly drawn) [31 (AH-38), {4-[(2β,3α,17β)-3,17-dihydroxyandrostan-2-yl]piperazin-1-yl}[(2S)-1-(isoquinolin-3-ylcarbonyl)pyrrolidin-2-yl]methanone] |  |  |  |  | 244 | 991 | 5.80 | 5.80
C[C@]12CC[C@H]3[C@@H](CCC4C[C@H](O)[C@@H](N5CCN(C(=O)[C@@H]6CCCN6C(=O)c6ccc7ncccc7c6)CC5)C[C@@]43C)[C@@H]1CC[C@@H]2O (stereo partly drawn) [32 (AH-47), {4-[(2β,3α,17β)-3,17-dihydroxyandrostan-2-yl]piperazin-1-yl}[(2S)-1-(quinolin-6-ylcarbonyl)pyrrolidin-2-yl]methanone] |  |  |  |  | 292 | 1170 | 5.33 | 5.33
C[C@]12CC[C@H]3[C@@H](CCC4C[C@H](O)[C@@H](N5CCN(C(=O)[C@@H]6CCCN6C(=O)c6ccc7ccccc7n6)CC5)C[C@@]43C)[C@@H]1CC[C@@H]2O (stereo partly drawn) [33 (AH-62), {4-[(2β,3α,17β)-3,17-dihydroxyandrostan-2-yl]piperazin-1-yl}[(2S)-1-(quinolin-2-ylcarbonyl)pyrrolidin-2-yl]methanone] |  |  |  |  | 185 | 752 | 5.85 | 5.85
CO[C@H]1CC[C@H]2[C@@H]3CCC4C[C@H](O)[C@@H](N5CCN(C(=O)[C@@H]6CCCN6C(=O)c6ccc7ccccc7c6)CC5)C[C@]4(C)[C@H]3CC[C@]12C (stereo partly drawn) [37 (AH-55), {4-[(2β,3α,17β)-3-hydroxy-17-methoxyandrostan-2-yl]piperazin-1-yl}[(2S)-1-(naphthalen-2-ylcarbonyl)pyrrolidin-2-yl]methanone] |  |  |  |  | 50 | 234 | 5.35 | 5.35
C[C@]12C[C@H](N3CCN(C(=O)[C@@H]4CCCN4C(=O)c4ccc5ccccc5c4)CC3)[C@@H](OC(=O)c3ccccc3C(=O)O)C[C@@H]1CC[C@@H]1[C@@H]2CC[C@]2(C)[C@@H](OC(=O)c3ccccc3C(=O)O)CC[C@@H]12 [38 (AH-75), 2,2′-{[(2β,3α,5α,17β)-2-{4-[1-(naphthalen-2-ylcarbonyl)-L-prolyl]piperazin-1-yl}androstane-3,17-diyl]bis(oxycarbonyl)}dibenzoic acid] |  |  |  |  | 38 | 72 | < 5.00 | < 5.00

— US8653054B2, “2-(N-substituted piperazinyl) steroid derivatives” (Universite Laval, priority 2008, dated 2014)
